# From paper PMC6216040, “Repurposing of an old drug: In vitro and in vivo efficacies of buparvaquone against Echinococcus multilocularis” (International Journal for Parasitology: Drugs and Drug …, 2018)
# Like-named read-outs stand apart in the source and are kept apart here.
# Test system: E. multilocularis metacestodes
# Experiment: PGI-assay: drug-induced damage on in vitro cultured metacestodes (Pathogen Box screening cascade and EC50)
# Type: cell-based, Echinococcus multilocularis
# Conditions: for PGI release, % of the Tx-100 control, 5d / PGI release, % of the Tx-100 control, 12d / cytotoxicity at 10 µM: 10 µM, singlets; for cytotoxicity at 10 µM: Echinococcus multilocularis
# [1] = 120 h, 5 days of incubation, read-out: PGI release, % of the Tx-100 control, 5d
# [2] = 288 h, 12 days of incubation, read-out: PGI release, % of the Tx-100 control, 12d
# [3] = confirmatory screening at 10 µM in triplicates, 5 days of incubation, values as % of Tx-100 control
# [4] = confirmatory screening at 10 µM in triplicates, 12 days of incubation, values as % of Tx-100 control
Compound,"PGI release, % of the Tx-100 control, 5d (5 days of incubation)","PGI release, % of the Tx-100 control, 12d (12 days of incubation)",further results
CC(=O)Nc1ccc(-c2noc(CC3CCCN(Cc4cccc(F)c4C)C3)n2)cc1 (centres unmarked) [MMV689061],2.22%,1.98%,
FC(F)(F)c1ccc(N(c2cccnc2)C2CCN(c3ccc(C(F)(F)F)cn3)CC2)cc1 [MMV689243],0.34%,10.04%,
O=C([C@@H](c1ccc(Cl)cc1)c1cccnc1)N1CCN(c2ccc(C(F)(F)F)cc2)CC1 [MMV689244],-0.13%,-0.53%,
"Nc1ncnc2c1ncn2C[C@@H](O)[C@@H](O)C(=O)O [MMV689255, Eritadenine]",,,cytotoxicity at 10 µM [1]: 0.0047%; cytotoxicity at 10 µM [2]: 0.51%
CC(c1cc(Cl)cc(Cl)c1)N(C)c1ncc2c(N)nc(N)nc2n1 (centres unmarked) [MMV689437],4.64%,4.83%,
CNc1cc(C)nc(C2CN(C(=O)c3n[nH]c4ccccc34)CCO2)c1 (centres unmarked) [MMV689709],-5.26%,58.81%,"PGI release, % of Tx-100 control, average, 5d [3]: -0.32%; PGI release, % of Tx-100 control, average, 12d [4]: -0.96%"
"COc1nc2ccc(Br)cc2cc1[C@@H](c1ccccc1)[C@@](O)(CCN(C)C)c1cccc2ccccc12 [MMV689758, Bedaquiline, reference compound]",,,cytotoxicity at 10 µM [1]: 2.07%; cytotoxicity at 10 µM [2]: -3.22%
COc1ccc(C2=NN(C3CCCCCC3)C(=O)[C@@H]3CC=CC[C@H]23)cc1OCCCCOc1ccc(-c2nn[nH]n2)cc1 [MMV690027],9.58%,27.83%,"PGI release, % of Tx-100 control, average, 5d [3]: 0.20%; PGI release, % of Tx-100 control, average, 12d [4]: 0.24%"
COc1ccc(C2=NN(C3CCCCCC3)C(=O)C2(C)C)cc1OCCCCOc1ccc(-c2nn[nH]n2)cc1 [MMV690028],2.30%,6.47%,
COc1ccc(Oc2ccc([C@@H](C)N(C)c3ncc4c(N)nc(N)nc4n3)cc2)cc1 [MMV690102],73.64%,91.71%,"PGI release, % of Tx-100 control, average, 5d (1 µM, triplicates, 5 days of incubation): -0.29%; PGI release, % of Tx-100 control, average, 12d (1 µM, triplicates, 12 days of incubation): 5.50%; activity in the screen at 10 μM (confirmed in triplicates, >20% relative PGI release) (10 μM, 5 and 12 days): active; PGI release, % of Tx-100 control, average, 5d [3]: 25.36%; PGI release, % of Tx-100 control, average, 12d [4]: 31.53%"
C[C@H](c1ccc2c(c1)CCCC2)N(C)c1ncc2c(N)nc(N)nc2n1 [MMV690103],-3.58%,41.60%,"PGI release, % of Tx-100 control, average, 5d [3]: -0.48%; PGI release, % of Tx-100 control, average, 12d [4]: 4.22%"
CCc1ccc(C(NCc2nc(N)nc(N(C)C)n2)C(C)C)cc1 (centres unmarked) [MMV1019989],0.39%,-3.04%,
O=C(Nc1nc(-c2ccccn2)cs1)C1CC1c1ccccc1F (centres unmarked) [MMV1028806],-2.32%,-0.32%,
CNC(=O)CNc1nc(-c2ccccn2)nc2scc(-c3ccccc3)c12 [MMV1029203],-5.65%,6.41%,
CCCn1c(NC(=O)c2ccc3ccccc3n2)nc2ccccc21 [MMV1030799],3.64%,13.68%,
CCNC(=O)C(C)Nc1nc(-c2cccnc2)nc2sc(C)c(C)c12 (centres unmarked) [MMV1037162],0.19%,-2.69%,
Cc1ccc(-c2nc(CN(Cc3ccccn3)C(C)C)cs2)o1 [MMV1088520],-5.44%,-2.75%,
COc1cccn2c(C(=O)N3CCCCC3)c(C(F)(F)F)nc12 [MMV1110498],-3.14%,0.63%,
Cc1cc(OCC(=O)Nc2ccc(C(C)C)cc2)n(C)c(=O)c1C#N [MMV1198433],2.43%,-0.19%,
CCOC(=O)c1noc(N)c1-c1ccccc1 [MMV1236379],3.51%,4.87%,
"Levofloxacin (-)-ofloxacin [MMV687798, reference compound]",-0.0541%,-0.33%,
